Consider two compounds from US4609730A, “7-[substituted imino-2-(2-aminothiazol-4-yl)-acetamido]-3(2,2-dihalovinyl or ethynyl)-3-cephem-4-carboxylic acid (syn isomers), having antimicrobial activities” (Fujisawa Pharmaceutical Co., Ltd., priority 1982, dated 1986).

Each structure is given as a SMILES string. ≈ marks a conversion by molar mass, not a printed value.

One data set can be described thus: in vivo. The following applies: rat, po, 100 mg/kg.
A further data set has as its system Proteus mirabilis 18. As to the kind of experiment: Minimal inhibitory concentration (MIC), two-fold agar-plate dilution method, Proteus mirabilis 18. In kind it is cell-based. To be noted: HI-agar, 37° C., 20 hours, 10^8 viable cells per ml. On the procedure:
(§1) In vitro antibacterial activity was determined by the two-fold agar-plate dilution method as described below.
(§2) One loopful of an overnight culture of each test strain in Trypticase-soy broth (10^8 viable cells per ml) was streaked on heart infusion agar (HI-agar) containing graded concentrations of representative test compound, and the minimal inhibitory concentration (MIC) was expressed in terms of μg/ml after incubation at 37° C. for 20 hours.

The next data set deals with Klebsiella pneumoniae 20. As to the kind of experiment: Minimal inhibitory concentration (MIC), two-fold agar-plate dilution method, Klebsiella pneumoniae 20. It counts as cell-based. To be noted: HI-agar, 37° C., 20 hours, 10^8 viable cells per ml. Here is the method:
as §1, §2

In another data set the test system is Proteus vulgaris 2. As to the kind of experiment: Minimal inhibitory concentration (MIC), two-fold agar-plate dilution method, Proteus vulgaris 2. It counts as cell-based. The following applies: HI-agar, 37° C., 20 hours, 10^8 viable cells per ml. On the procedure:
as §1, §2

Data set [1] is described as follows: Urinary excretion in rats after oral administration. The following applies: rat, 100 mg/kg, urine 0-24 hours, bioassay, read-out: Urinary recovery in 24 hours. In kind it is in vivo.
Method: Urine of rats was collected with a urine collector at 0 to 6, and 6 to 24 hours after oral administration of 100 mg/kg of the test antibiotic. The antibiotic levels in the urine samples were bioassayed with the standard solution prepared with M/15 phosphate buffer pH 7.0) and the urinary recovery in 24 hours was calculated.

Method for in vivo: Rats anesthetized with pentobarbital were fixed in supine position, and a polyethylene cannula was inserted into the bile duct. Bile samples were collected at 0 to 3, 3 to 6, and 6 to 24 hours after oral administration of 100 mg/kg of the test antibiotic. The antibiotic levels in the bile samples were bioassayed with the standard solution prepared with M/15 phosphate buffer (pH 7.0) and the biliary recovery in 24 hours were calculated.

As for `C#CC1=C(C(=O)O)N2C(=O)C(NC(=O)/C(=N\OCC(=O)O)c3csc(N)n3)C2SC1` (stereo not drawn) [A, 7-[2-Carboxymethoxyimino-2-(2-aminothiazol-4-yl)-acetamido]-3-ethynyl-3-cephem-4-carboxylic acid (syn isomer)], the dose excreted at 24 h in “in vivo” came out at 7.46%; in data set [1], 20%. The values for the MIC against Proteus mirabilis 18, in the data set on Klebsiella pneumoniae 20 and in the data set with Proteus vulgaris 2 were 0.05 µg/mL (≈ 0.111 µM), 0.1 µg/mL (≈ 0.222 µM) and 0.025 µg/mL (≈ 0.0554 µM), respectively.

Turning to `CO/N=C(\C(=O)NC1C(=O)N2C(C(=O)O)=C(C=C(Cl)Cl)CSC12)c1csc(N)n1` (stereo not drawn) [B, 7-[2-Methoxyimino-2-(2-aminothiazol-4-yl)acetamido]-3-(2,2-dichlorovinyl)-3-cephem-4-carboxylic acid (syn isomer)], the figures for the MIC against Proteus mirabilis 18, with Klebsiella pneumoniae 20 and with Proteus vulgaris 2 were 0.05 µg/mL (≈ 0.105 µM), 0.025 µg/mL (≈ 0.0523 µM) and 0.025 µg/mL (≈ 0.0523 µM), respectively.
